Structures can show the parent of a compound that is named as a salt. Blank lines part the entries; values can stand above or below the compound they belong to.
Experiments:
Enterococcus = experiment: Average MIC data, growth at serial concentrations; type: cell-based
Text: (§1) Minimum Inhibitory Concentration Data
(§2) Average MIC data with growth details in various concentration of ceftriaxone and vancomycin combination of the present invention, ceftriaxone alone and vancomycin alone with following bacteria such as MSSA, Enterococcus, S. pneumoniae, Penicillin resistant streptococcus pneumoniae, MRSA.

S. aurens = experiment: Average MIC data, growth at serial concentrations; type: cell-based
Text: as §1, §2

S. aurens (MRSA) = experiment: Average MIC data, growth at serial concentrations; type: cell-based
Text: as §1, §2

Streptococcus pneumoniae = experiment: Average MIC data, growth at serial concentrations; type: cell-based
Text: as §1, §2

S. pneumoniae = experiment: Average MIC data, growth at serial concentrations; type: cell-based
Text: as §1, §2

[1] = system: penicillin- and quinolone-resistant pneumococcal mutant strain; settings: experimental rabbit meningitis; cited from earlier work

- Growth at concentration (Average MIC data) (Enterococcus; 0.125 μg/ml): Growth Found
- Growth at concentration (Average MIC data) (Enterococcus; 0.25 μg/ml): Growth Found
- Growth at concentration (Average MIC data) (Enterococcus; 0.5 μg/ml): Growth Found
- Growth at concentration (Average MIC data) (Enterococcus; 1 μg/ml): No growth
- Growth at concentration (Average MIC data) (Enterococcus; 2 μg/ml): No growth
- Growth at concentration (Average MIC data) (Enterococcus; 4 μg/ml): No growth
- Growth at concentration (Average MIC data) (Enterococcus; 8 μg/ml): No growth
- Growth at concentration (Average MIC data) (Enterococcus; 16 μg/ml): No growth
- Growth at concentration (Average MIC data) (Enterococcus; 32 μg/ml): No growth
- Growth at concentration (Average MIC data) (Enterococcus; 64 μg/ml): No growth
- Growth at concentration (Average MIC data) (Enterococcus; 128 μg/ml): No growth
- Growth at concentration (Average MIC data) (S. aurens; 0.125 μg/ml): Growth Found
- Growth at concentration (Average MIC data) (S. aurens; 0.25 μg/ml): Growth Found
- Growth at concentration (Average MIC data) (S. aurens; 0.5 μg/ml): Growth Found
- Growth at concentration (Average MIC data) (S. aurens; 1 μg/ml): No growth
- Growth at concentration (Average MIC data) (S. aurens; 2 μg/ml): No growth
- Growth at concentration (Average MIC data) (S. aurens; 4 μg/ml): No growth
- Growth at concentration (Average MIC data) (S. aurens; 8 μg/ml): No growth
- Growth at concentration (Average MIC data) (S. aurens; 16 μg/ml): No growth
- Growth at concentration (Average MIC data) (S. aurens; 32 μg/ml): No growth
- Growth at concentration (Average MIC data) (S. aurens; 64 μg/ml): No growth
- Growth at concentration (Average MIC data) (S. aurens; 128 μg/ml): No growth
- Growth at concentration (Average MIC data) (S. aurens (MRSA); 0.125 μg/ml): Growth Found
- Growth at concentration (Average MIC data) (S. aurens (MRSA); 0.25 μg/ml): Growth Found
- Growth at concentration (Average MIC data) (S. aurens (MRSA); 0.5 μg/ml): Growth Found
- Growth at concentration (Average MIC data) (S. aurens (MRSA); 1 μg/ml): Growth Found
- Growth at concentration (Average MIC data) (S. aurens (MRSA); 2 μg/ml): Growth Found
- Growth at concentration (Average MIC data) (S. aurens (MRSA); 4 μg/ml): Growth Found
- Growth at concentration (Average MIC data) (S. aurens (MRSA); 8 μg/ml): Growth Found
- Growth at concentration (Average MIC data) (S. aurens (MRSA); 16 μg/ml): Growth Found
- Growth at concentration (Average MIC data) (S. aurens (MRSA); 32 μg/ml): Growth Found
- Growth at concentration (Average MIC data) (S. aurens (MRSA); 64 μg/ml): No growth
- Growth at concentration (Average MIC data) (S. aurens (MRSA); 128 μg/ml): No growth
- Growth at concentration (Average MIC data) (Streptococcus pneumoniae; 0.125 μg/ml): Growth Found
- Growth at concentration (Average MIC data) (Streptococcus pneumoniae; 0.25 μg/ml): Growth Found
- Growth at concentration (Average MIC data) (Streptococcus pneumoniae; 0.5 μg/ml): Growth Found
- Growth at concentration (Average MIC data) (Streptococcus pneumoniae; 1 μg/ml): Growth Found
- Growth at concentration (Average MIC data) (Streptococcus pneumoniae; 2 μg/ml): Growth Found
- Growth at concentration (Average MIC data) (Streptococcus pneumoniae; 4 μg/ml): No growth
- Growth at concentration (Average MIC data) (Streptococcus pneumoniae; 8 μg/ml): No growth
- Growth at concentration (Average MIC data) (Streptococcus pneumoniae; 16 μg/ml): No growth
- Growth at concentration (Average MIC data) (Streptococcus pneumoniae; 32 μg/ml): No growth
- Growth at concentration (Average MIC data) (Streptococcus pneumoniae; 64 μg/ml): No growth
- Growth at concentration (Average MIC data) (Streptococcus pneumoniae; 128 μg/ml): No growth
- Growth at concentration (Average MIC data) (S. pneumoniae; 0.125 μg/ml): Growth Found
- Growth at concentration (Average MIC data) (S. pneumoniae; 0.25 μg/ml): Growth Found
- Growth at concentration (Average MIC data) (S. pneumoniae; 0.5 μg/ml): No growth
- Growth at concentration (Average MIC data) (S. pneumoniae; 1 μg/ml): No growth
- Growth at concentration (Average MIC data) (S. pneumoniae; 2 μg/ml): No growth
- Growth at concentration (Average MIC data) (S. pneumoniae; 4 μg/ml): No growth
- Growth at concentration (Average MIC data) (S. pneumoniae; 8 μg/ml): No growth
- Growth at concentration (Average MIC data) (S. pneumoniae; 16 μg/ml): No growth
- Growth at concentration (Average MIC data) (S. pneumoniae; 32 μg/ml): No growth
- Growth at concentration (Average MIC data) (S. pneumoniae; 64 μg/ml): No growth
- Growth at concentration (Average MIC data) (S. pneumoniae; 128 μg/ml): No growth
Structure (SMILES): CO/N=C(\C(=O)N[C@@H]1C(=O)N2C(C(=O)O)=C(CSc3nc(=O)c(=O)[nH]n3C)CS[C@H]12)c1csc(N)n1 [Ceftriaxone, (Z)-7-[2-(2-Aminothiazole-4-yl)-2-methoxyiminoacetamido]-3-[(2,5-dihydro-6-hydroxy-2-methyl-5-oxo-1,2,4-triazin-3-yl)thiomethyl]-3-cephem-4-carboxylic acid, disodium salt, Sesquaterhydrate]

Structure (SMILES): CN[C@H](CC(C)C)C(=O)N[C@H]1C(=O)N[C@@H](CC(N)=O)C(=O)N[C@H]2C(=O)N[C@H]3C(=O)N[C@H](C(=O)N[C@H](C(=O)O)c4cc(O)cc(O)c4-c4cc3ccc4O)[C@H](O)c3ccc(c(Cl)c3)Oc3cc2cc(c3O[C@@H]2O[C@H](CO)[C@@H](O)[C@H](O)[C@H]2O[C@H]2C[C@](C)(N)[C@H](O)[C@H](C)O2)Oc2ccc(cc2Cl)[C@H]1O [Vancomycin]
- Growth at concentration (Average MIC data) (Enterococcus; 0.125 μg/ml): Growth Found
- Growth at concentration (Average MIC data) (Enterococcus; 0.25 μg/ml): Growth Found
- Growth at concentration (Average MIC data) (Enterococcus; 0.5 μg/ml): No growth
- Growth at concentration (Average MIC data) (Enterococcus; 1 μg/ml): No growth
- Growth at concentration (Average MIC data) (Enterococcus; 2 μg/ml): No growth
- Growth at concentration (Average MIC data) (Enterococcus; 4 μg/ml): No growth
- Growth at concentration (Average MIC data) (Enterococcus; 8 μg/ml): No growth
- Growth at concentration (Average MIC data) (Enterococcus; 16 μg/ml): No growth
- Growth at concentration (Average MIC data) (Enterococcus; 32 μg/ml): No growth
- Growth at concentration (Average MIC data) (Enterococcus; 64 μg/ml): No growth
- Growth at concentration (Average MIC data) (Enterococcus; 128 μg/ml): No growth
- Growth at concentration (Average MIC data) (S. aurens; 0.125 μg/ml): Growth Found
- Growth at concentration (Average MIC data) (S. aurens; 0.25 μg/ml): Growth Found
- Growth at concentration (Average MIC data) (S. aurens; 0.5 μg/ml): Growth Found
- Growth at concentration (Average MIC data) (S. aurens; 1 μg/ml): Growth Found
- Growth at concentration (Average MIC data) (S. aurens; 2 μg/ml): Growth Found
- Growth at concentration (Average MIC data) (S. aurens; 4 μg/ml): No growth
- Growth at concentration (Average MIC data) (S. aurens; 8 μg/ml): No growth
- Growth at concentration (Average MIC data) (S. aurens; 16 μg/ml): No growth
- Growth at concentration (Average MIC data) (S. aurens; 32 μg/ml): No growth
- Growth at concentration (Average MIC data) (S. aurens; 64 μg/ml): No growth
- Growth at concentration (Average MIC data) (S. aurens; 128 μg/ml): No growth
- Growth at concentration (Average MIC data) (S. aurens (MRSA); 0.125 μg/ml): Growth Found
- Growth at concentration (Average MIC data) (S. aurens (MRSA); 0.25 μg/ml): Growth Found
- Growth at concentration (Average MIC data) (S. aurens (MRSA); 0.5 μg/ml): Growth Found
- Growth at concentration (Average MIC data) (S. aurens (MRSA); 1 μg/ml): Growth Found
- Growth at concentration (Average MIC data) (S. aurens (MRSA); 2 μg/ml): Growth Found
- Growth at concentration (Average MIC data) (S. aurens (MRSA); 4 μg/ml): No growth
- Growth at concentration (Average MIC data) (S. aurens (MRSA); 8 μg/ml): No growth
- Growth at concentration (Average MIC data) (S. aurens (MRSA); 16 μg/ml): No growth
- Growth at concentration (Average MIC data) (S. aurens (MRSA); 32 μg/ml): No growth
- Growth at concentration (Average MIC data) (S. aurens (MRSA); 64 μg/ml): No growth
- Growth at concentration (Average MIC data) (S. aurens (MRSA); 128 μg/ml): No growth
- Growth at concentration (Average MIC data) (Streptococcus pneumoniae; 0.125 μg/ml): Growth Found
- Growth at concentration (Average MIC data) (Streptococcus pneumoniae; 0.25 μg/ml): Growth Found
- Growth at concentration (Average MIC data) (Streptococcus pneumoniae; 0.5 μg/ml): Growth Found
- Growth at concentration (Average MIC data) (Streptococcus pneumoniae; 1 μg/ml): No growth
- Growth at concentration (Average MIC data) (Streptococcus pneumoniae; 2 μg/ml): No growth
- Growth at concentration (Average MIC data) (Streptococcus pneumoniae; 4 μg/ml): No growth
- Growth at concentration (Average MIC data) (Streptococcus pneumoniae; 8 μg/ml): No growth
- Growth at concentration (Average MIC data) (Streptococcus pneumoniae; 16 μg/ml): No growth
- Growth at concentration (Average MIC data) (Streptococcus pneumoniae; 32 μg/ml): No growth
- Growth at concentration (Average MIC data) (Streptococcus pneumoniae; 64 μg/ml): No growth
- Growth at concentration (Average MIC data) (Streptococcus pneumoniae; 128 μg/ml): No growth
- Growth at concentration (Average MIC data) (S. pneumoniae; 0.125 μg/ml): Growth Found
- Growth at concentration (Average MIC data) (S. pneumoniae; 0.25 μg/ml): Growth Found
- Growth at concentration (Average MIC data) (S. pneumoniae; 0.5 μg/ml): No growth
- Growth at concentration (Average MIC data) (S. pneumoniae; 1 μg/ml): No growth
- Growth at concentration (Average MIC data) (S. pneumoniae; 2 μg/ml): No growth
- Growth at concentration (Average MIC data) (S. pneumoniae; 4 μg/ml): No growth
- Growth at concentration (Average MIC data) (S. pneumoniae; 8 μg/ml): No growth
- Growth at concentration (Average MIC data) (S. pneumoniae; 16 μg/ml): No growth
- Growth at concentration (Average MIC data) (S. pneumoniae; 32 μg/ml): No growth
- Growth at concentration (Average MIC data) (S. pneumoniae; 64 μg/ml): No growth
- Growth at concentration (Average MIC data) (S. pneumoniae; 128 μg/ml): No growth

Structure (SMILES): CO/N=C(\C(=O)N[C@@H]1C(=O)N2C(C(=O)[O-])=C(C[N+]3(C)CCCC3)CS[C@H]12)c1csc(N)n1 [cefepime]
- bactericidal activity [1]: −0.61+/−0.24 Delta log(10) cfu/mL×h

Reference: patent US8778873B2, “Parenteral combination therapy for infective conditions with drug resistant bacterium” (Venus Remedies Limited, priority 2005, dated 2014)
